Data taken from patent US9365597B2, “Mitochondria-targeted inhibitors of cytochrome c peroxidase for protection from apoptosis” (Brock University, priority 2011, dated 2016).

Experiments:
[1] = Compartmentalization of TPP-IOA in mouse embryonic cells and subcellular fractions (HPLC, ESI-MS); assay type: in vitro ADME
Protocol: Mitochondrial fractions were isolated by differential centrifugation. Briefly, cells were suspended in mitochondria isolation buffer (pH 7.4; MIB) containing mannitol (210 mM), sucrose (70 mM), HEPES (10 mM), EDTA (1 mM) and protease inhibitor cocktail. Cells were lysed by Dounce homogenization. Unbroken cells, nuclei and debris were removed by 5 min centrifugation at 600×g at 4° C. Mitochondria, obtained by centrifugation at 10,000×g (10 min), were washed once with MIB.
Mouse embryonic cells (2×10^6) were seeded in 100 mm cell culture dishes and let attached overnight. Thereafter, the cells were incubated with TPP-IOA (10 μM) in PBS at 37° C. for 30 min, washed with PBS (2×5 mL), and collected by trypsinization. Mitochondria were isolated as described above. In mitochondria, TPP-IOA was analyzed by HPLC after precipitation of proteins with CH3CN (final concentration, 70%; incubation time, 15 min at 4° C.; centrifugation, 5 min at 10,000×g). TPP-IOA from cytosolic fractions was extracted by following the protocol of Folch et al.^37 and then re-dissolved in a minimal volume of methanol. […] Detection of TPP-IOA was performed with a SPD-M10A photodiode array detector (Shimadzu, Kyoto, Japan) following the specific UV spectrum of the triphenylphosphonium function (λmax=224, 264 and 274 nm; FIG. 4A, Inset). TPP-IOA was eluted as single peak with retention time of 4 min.

[2] = system: mouse lung endothelial cells; test: Rotenone-induced apoptosis in mouse lung endothelial cells (PS externalization); assay type: cell-based; details: 2 μM rotenone, TPP-IOA 2.5, 5 μM, 48 h
Protocol: Mouse embryonic cells (courtesy of Dr X. Wang, University of Texas, Dallas) were cultured in Dulbecco's Modified Eagle Medium (DMEM) supplemented with 15% fetal bovine serum (FBS), 25 mM Hepes, 50 mg per liter uridine, 110 mg per liter pyruvate, 2 mM glutamine, 1× nonessential amino acids, 50 μM β-mercaptoethanol, 0.5×10^6 Upper liter mouse leukaemia inhibitory factor, 100 Upper liter penicillin, and 100 mg per liter streptomycin in a humidified atmosphere of 5% CO2, 95% air at 37° C. Mouse lung endothelial cells were obtained as previously described^29. Briefly, lungs were flushed with Hank's balanced salt solution (HBSS) containing 10 U ml^−1 heparin, then homogenized and digested in type I collagenase using a gentle MACs dissociator (Miltenyi). […] At approximately passage 2, cells were incubated with fluorescently labelled diacetylated low-density lipoprotein (LDL) followed by fluorescence-activated cell sorting (FACS) for further purification. The enriched PECAM and diacetylated LDL population was sub-cultured on a collagen/gelatin matrix in 2% O2, 5% CO2, 93% nitrogen in a Coy Hypoxic Glove Box/Chamber in Opti-MEM (Gibco), 10% FBS, 2 mM glutamine, 0.2% retinal-derived growth factor (Vec Technologies), 10 U ml^−1 heparin, 0.1 mM non-essential amino acid supplement (Gibco) and 55 μM β-mercaptoethanol (Counted as passage 3). […]

Question: For `CCCCCCC(C/C=C\CCCCCCCC(=O)OCCC[P+](c1ccccc1)(c1ccccc1)c1ccccc1)n1ccnc1.[Br-]` (stereo not drawn) [TPP-IOA], which “concentration of TPP-IOA in mitochondria” value ([1]; assuming mitochondria are ~15-25% of cell volume) is on record?
Answer: Its value is about 5000 µM.

Question: What about the “subcellular distribution of TPP-IOA” value ([1]; mouse embryonic cells, 10 μM, 30 min) of the same compound?
Answer: The value was “most of the TPP-IOA was present in mitochondria”.

Question: And the “inhibition of rotenone-induced apoptosis” value [2]?
Answer: Its value is “effectively inhibited apoptosis”.
